Measured values taken from paper PMC8042770, “Odorant Receptors for Detecting Flowering Plant Cues Are Functionally Conserved across Moths and Butterflies” (Molecular Biology and Evolution, 2020).
pEC50: −log10 of the molar value. Read-outs that look alike come from different tables or passages of the source.

Columns and labels:
HarmOR63 = HarmOR63 (Helicoverpa armigera, UniProt A0A7T3N0P9); test: Xenopus oocyte two-electrode voltage clamp, HarmOR63 + Orco; format: cell-based; conditions: dose response in oocytes, unit M
Description: (§1) In order to expand our analysis on the response properties of HarmORs, we conducted dose–response analyses for the 28 functional HarmORs. […] Six HarmORs (OR3, 22, 48, 50, 56, and 66) could not be activated by any ligand at 10^−5 M. For the other 22 HarmORs, dose–response curves were generated and EC50 values of their major ligands were calculated (fig. 2A and supplementary table S2, Supplementary Material online). The HarmOR repertoire was highly efficient in terpene detection, since the lowest EC50 values were obtained for such compounds. Many of these terpenes have been proposed to be defensive chemicals of plants. […] DMNT is also one of the oviposition deterring compounds found in larval frass of some Lepidoptera species such as S. littoralis ([Anderson et al. 1993]).
(§2) Functional characterization of individual ORs was performed by heterologous expression in Xenopus oocytes combined with a two-electrode voltage-clamp system ([Wang et al. 2010]). […] After incubation in nutrient solution at 18 °C for 3–5 days, the response profile of each oocyte to multiple plant odorants was recorded via a two-electrode voltage clamp (OC-725C oocyte clamp, Warner Instruments, Hamden, CT) at a holding potential of −80 mV. Data were acquired by using a Digidata 1440 A and were analyzed by pCLAMP 10.2 software (Axon Instruments Inc., Union City, CA). […]

HarmOR55 = HarmOR55 (Helicoverpa armigera, UniProt A0A7T3N2G6); test: Xenopus oocyte two-electrode voltage clamp, HarmOR55 + Orco; format: cell-based; conditions: dose response in oocytes, unit M
Description: as §1, §2

HarmOR40 = target: T1, HarmOR40 (Helicoverpa armigera, UniProt A0A7T3KBF4); test: Xenopus oocyte two-electrode voltage clamp, HarmOR40 + Orco; format: cell-based; conditions: HarmOR40; dose response in oocytes; unit M printed in text only; read-out: EC50
T1 sequence (A0A7T3KBF4 1-401): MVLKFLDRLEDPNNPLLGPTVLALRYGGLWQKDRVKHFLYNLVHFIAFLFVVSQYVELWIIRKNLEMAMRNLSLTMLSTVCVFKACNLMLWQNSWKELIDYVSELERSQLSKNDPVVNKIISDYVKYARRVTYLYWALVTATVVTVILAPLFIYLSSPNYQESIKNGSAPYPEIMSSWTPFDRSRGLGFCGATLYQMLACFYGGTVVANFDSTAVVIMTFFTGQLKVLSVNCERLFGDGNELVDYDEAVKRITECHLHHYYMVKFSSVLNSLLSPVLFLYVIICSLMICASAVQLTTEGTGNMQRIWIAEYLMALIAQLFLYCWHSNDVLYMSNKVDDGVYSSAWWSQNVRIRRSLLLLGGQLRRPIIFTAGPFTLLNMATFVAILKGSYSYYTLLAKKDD
Description: as §1
(§3) Functional characterization of individual ORs was performed by heterologous expression in Xenopus oocytes combined with a two-electrode voltage-clamp system ([Wang et al. 2010]). Briefly, the full-length gene of each OR and Orco were subcloned into the eukaryotic expression vector pT7TS. cRNAs were generated from linearized expression vectors using the mMESSAGE mMACHINE T7 kit (Ambion, Austin, TX). Then, the cRNA mixture of ORx and Orco (27.6 ng each) was injected (Nanoliter 2010, WPI Inc., Sarasota, FL) into oocytes (stage V–VII). The respective Orcos of different species were used for functional studies of OR42 orthologs except for the four butterfly species (V. tameamea, P. xuthus, D. plexippus, and P. rapae), in which we used the Orco from P. xuthus. After incubation in nutrient solution at 18 °C for 3–5 days, the response profile of each oocyte to multiple plant odorants was recorded via a two-electrode voltage clamp (OC-725C oocyte clamp, Warner Instruments, Hamden, CT) at a holding potential of −80 mV. Data were acquired by using a Digidata 1440 A and were analyzed by pCLAMP 10.2 software (Axon Instruments Inc., Union City, CA).
(§4) Stock solutions of each odorant were prepared at 1 M using DMSO as a solvent, and each odorant was diluted in 1× Ringer’s solution to the indicated concentrations for electrophysiological recording. For functional screening of each HarmOR, a panel of 67 odorants belonging to three types of chemical classes: terpenes, aromatics, and aliphatics (short-chain fatty acid) were used (supplementary table S1, Supplementary Material online). For functional studies of OR42 orthologs from different species, six odorants including PAA, benzaldehyde, (E)-2-hexen-1-al, cinnamaldehyde, 2-phenylethanol, and heptanal were used.

HarmOR26 = HarmOR26 (Helicoverpa armigera, UniProt A0A075T633); test: Xenopus oocyte two-electrode voltage clamp, HarmOR26 + Orco; format: cell-based; conditions: dose response in oocytes, unit M printed in b12 only
Description: as §1, §2

HarmOR repertoire = test: Responses of the 28 functional HarmORs across odorant doses (PCA of oocyte currents); format: cell-based, Helicoverpa armigera; conditions: odorant 10^−7 M
Source text: Vectors quantifying the responses of the 28 ORs to each odorant were projected onto a 3D landscape. This 3D representation captured 78.34% (10^−4 M), 65.11% (10^−5 M), 68.89% (10^−6 M), and 84.52% (10^−7 M) of the variation in the original 28D data set across different odorant concentrations. […] In addition, the capacity of the H. armigera odor space was highly dependent on odorant concentration. As the concentrations of odorants decreased, their positions in the odor space converged, with the ability to discriminate different odorants diminishing.
as §3, §4
Graphs and data statistics of OR response spectra, dose responses, EAG, and behavioral experiments were generated by Prism 7 (GraphPad Software, La Jolla, CA). A heat map was generated in Excel 2010 (Microsoft Corporation, WA). […] For tuning breadth analysis, the kurtosis values (K) were calculated by SPSS 22 (SPSS Inc., Chicago, IL) and were used to define the tuning spectra width, where smaller K values represent broader tuning spectra (fig. 1B). […]

HarmOR7 = HarmOR7 (Helicoverpa armigera, UniProt A0A7T3KAD7); test: Xenopus oocyte two-electrode voltage clamp, HarmOR7 + Orco; format: cell-based
Description: as §1, §2

HarmOR35 = HarmOR35 (Helicoverpa armigera, UniProt A0A7T3N1A8); test: Xenopus oocyte two-electrode voltage clamp, HarmOR35 + Orco; format: cell-based
Description: as §1, §2

HarmOR25 = HarmOR25 (Helicoverpa armigera, UniProt A0A7T3KAG7); test: Xenopus oocyte two-electrode voltage clamp, HarmOR25 + Orco; format: cell-based
Description: as §1, §2

HarmOR29 = HarmOR29 (Helicoverpa armigera, UniProt A0A7T3KAG0); test: Xenopus oocyte two-electrode voltage clamp, HarmOR29 + Orco; format: cell-based; conditions: dose response in oocytes, unit M
Description: as §1, §2

HarmOR60 = target: T2, HarmOR60 (Helicoverpa armigera, UniProt A0A7T3N1B9); test: Xenopus oocyte two-electrode voltage clamp, HarmOR60 + Orco; format: cell-based
T2 sequence (A0A7T3N1B9 1-391): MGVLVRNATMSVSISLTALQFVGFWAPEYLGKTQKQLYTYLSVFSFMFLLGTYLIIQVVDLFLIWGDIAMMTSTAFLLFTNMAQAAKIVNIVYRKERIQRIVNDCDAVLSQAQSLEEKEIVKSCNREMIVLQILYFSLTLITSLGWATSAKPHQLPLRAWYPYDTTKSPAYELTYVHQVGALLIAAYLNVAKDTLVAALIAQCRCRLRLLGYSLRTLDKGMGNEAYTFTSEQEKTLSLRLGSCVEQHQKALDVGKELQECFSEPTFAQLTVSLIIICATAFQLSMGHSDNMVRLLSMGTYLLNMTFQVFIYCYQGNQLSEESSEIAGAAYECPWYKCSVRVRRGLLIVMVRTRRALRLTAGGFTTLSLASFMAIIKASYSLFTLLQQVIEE
Description: as §1
as §3, with “CA). […]” for “CA).”

HarmOR8 = HarmOR8 (Helicoverpa armigera, UniProt A0A7T3N2E2); test: Xenopus oocyte two-electrode voltage clamp, HarmOR8 + Orco; format: cell-based; conditions: dose response in oocytes, unit M
Description: as §1, §2

HarmOR31 = HarmOR31 (Helicoverpa armigera, UniProt A0A7T3N2E9); test: Xenopus oocyte two-electrode voltage clamp, HarmOR31 + Orco; format: cell-based
Source text: In order to expand our analysis on the response properties of HarmORs, we conducted dose–response analyses for the 28 functional HarmORs. […] Many of these terpenes have been proposed to be defensive chemicals of plants.
Briefly, the full-length gene of each OR and Orco were subcloned into the eukaryotic expression vector pT7TS. cRNAs were generated from linearized expression vectors using the mMESSAGE mMACHINE T7 kit (Ambion, Austin, TX). […] The respective Orcos of different species were used for functional studies of OR42 orthologs except for the four butterfly species (V. tameamea, P. xuthus, D. plexippus, and P. rapae), in which we used the Orco from P. xuthus.
as §4

Chain of HarmOR25 (A0A7T3KAG7 1-398): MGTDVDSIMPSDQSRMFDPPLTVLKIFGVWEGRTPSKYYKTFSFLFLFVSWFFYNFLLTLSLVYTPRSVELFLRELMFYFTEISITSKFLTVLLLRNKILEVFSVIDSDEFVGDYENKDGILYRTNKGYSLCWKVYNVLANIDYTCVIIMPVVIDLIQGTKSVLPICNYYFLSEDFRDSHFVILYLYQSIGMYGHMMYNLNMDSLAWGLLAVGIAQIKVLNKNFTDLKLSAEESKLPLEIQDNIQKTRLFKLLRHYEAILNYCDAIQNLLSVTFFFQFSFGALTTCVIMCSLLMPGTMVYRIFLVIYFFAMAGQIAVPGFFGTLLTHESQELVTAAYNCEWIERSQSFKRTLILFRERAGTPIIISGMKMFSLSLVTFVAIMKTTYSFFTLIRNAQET
Chain of HarmOR63 (A0A7T3N0P9 1-407): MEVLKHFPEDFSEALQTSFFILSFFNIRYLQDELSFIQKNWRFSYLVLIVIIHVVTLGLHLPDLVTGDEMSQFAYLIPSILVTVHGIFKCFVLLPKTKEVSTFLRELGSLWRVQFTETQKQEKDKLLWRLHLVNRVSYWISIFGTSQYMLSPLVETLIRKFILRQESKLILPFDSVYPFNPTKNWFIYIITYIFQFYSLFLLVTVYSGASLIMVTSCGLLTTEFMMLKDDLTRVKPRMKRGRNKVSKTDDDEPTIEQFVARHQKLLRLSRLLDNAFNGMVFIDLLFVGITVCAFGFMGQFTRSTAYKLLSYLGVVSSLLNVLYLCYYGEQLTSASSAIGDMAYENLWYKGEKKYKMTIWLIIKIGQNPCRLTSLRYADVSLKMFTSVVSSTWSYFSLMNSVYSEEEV
Chain of HarmOR7 (A0A7T3KAD7 1-411): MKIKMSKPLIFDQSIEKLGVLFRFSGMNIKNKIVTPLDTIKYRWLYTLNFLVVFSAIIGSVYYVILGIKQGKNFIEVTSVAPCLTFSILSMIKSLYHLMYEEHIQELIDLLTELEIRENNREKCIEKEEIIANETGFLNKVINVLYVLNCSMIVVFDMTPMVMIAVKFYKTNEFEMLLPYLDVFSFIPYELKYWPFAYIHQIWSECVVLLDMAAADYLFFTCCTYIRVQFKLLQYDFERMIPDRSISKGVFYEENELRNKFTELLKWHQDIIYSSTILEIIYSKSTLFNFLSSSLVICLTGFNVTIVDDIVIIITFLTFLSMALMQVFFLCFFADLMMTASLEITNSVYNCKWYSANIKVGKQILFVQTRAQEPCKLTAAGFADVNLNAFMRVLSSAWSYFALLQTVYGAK
Chain of HarmOR26 (A0A075T633 1-408): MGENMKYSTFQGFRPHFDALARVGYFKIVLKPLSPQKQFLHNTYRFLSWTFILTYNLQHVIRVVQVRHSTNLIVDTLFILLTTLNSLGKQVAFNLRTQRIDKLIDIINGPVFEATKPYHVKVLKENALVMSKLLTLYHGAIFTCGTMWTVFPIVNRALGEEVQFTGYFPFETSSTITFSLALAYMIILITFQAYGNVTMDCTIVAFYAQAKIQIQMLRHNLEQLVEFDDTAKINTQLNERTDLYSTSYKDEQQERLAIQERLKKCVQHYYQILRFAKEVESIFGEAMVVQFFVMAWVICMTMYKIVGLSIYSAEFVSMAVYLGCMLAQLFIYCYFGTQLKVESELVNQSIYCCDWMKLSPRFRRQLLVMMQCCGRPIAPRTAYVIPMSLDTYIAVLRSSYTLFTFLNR
Chain of HarmOR35 (A0A7T3N1A8 entry or part of it): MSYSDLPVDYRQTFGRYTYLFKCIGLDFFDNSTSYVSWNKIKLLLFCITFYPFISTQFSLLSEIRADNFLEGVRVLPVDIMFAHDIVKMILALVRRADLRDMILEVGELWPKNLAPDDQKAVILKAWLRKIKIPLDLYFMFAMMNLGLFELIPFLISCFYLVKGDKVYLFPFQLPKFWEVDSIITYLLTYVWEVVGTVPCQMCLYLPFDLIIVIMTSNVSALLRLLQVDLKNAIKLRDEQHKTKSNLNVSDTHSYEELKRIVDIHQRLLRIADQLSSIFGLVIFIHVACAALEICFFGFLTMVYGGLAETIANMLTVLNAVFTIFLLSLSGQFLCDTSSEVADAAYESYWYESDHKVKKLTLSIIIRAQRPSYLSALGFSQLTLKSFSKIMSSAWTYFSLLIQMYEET
Chain of HarmOR31 (A0A7T3N2E9 entry or part of it): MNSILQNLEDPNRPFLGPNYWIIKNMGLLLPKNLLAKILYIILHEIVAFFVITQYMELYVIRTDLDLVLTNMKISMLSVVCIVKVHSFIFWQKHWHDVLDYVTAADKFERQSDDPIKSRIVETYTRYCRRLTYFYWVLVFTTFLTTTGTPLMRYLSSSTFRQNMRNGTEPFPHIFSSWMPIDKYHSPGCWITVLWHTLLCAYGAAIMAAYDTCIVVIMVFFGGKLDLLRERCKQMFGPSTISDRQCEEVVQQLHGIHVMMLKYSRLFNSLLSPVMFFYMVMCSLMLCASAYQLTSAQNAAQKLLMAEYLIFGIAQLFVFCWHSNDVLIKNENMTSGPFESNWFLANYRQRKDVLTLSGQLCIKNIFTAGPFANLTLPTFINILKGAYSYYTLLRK
Chain of HarmOR8 (A0A7T3N2E2 1-406): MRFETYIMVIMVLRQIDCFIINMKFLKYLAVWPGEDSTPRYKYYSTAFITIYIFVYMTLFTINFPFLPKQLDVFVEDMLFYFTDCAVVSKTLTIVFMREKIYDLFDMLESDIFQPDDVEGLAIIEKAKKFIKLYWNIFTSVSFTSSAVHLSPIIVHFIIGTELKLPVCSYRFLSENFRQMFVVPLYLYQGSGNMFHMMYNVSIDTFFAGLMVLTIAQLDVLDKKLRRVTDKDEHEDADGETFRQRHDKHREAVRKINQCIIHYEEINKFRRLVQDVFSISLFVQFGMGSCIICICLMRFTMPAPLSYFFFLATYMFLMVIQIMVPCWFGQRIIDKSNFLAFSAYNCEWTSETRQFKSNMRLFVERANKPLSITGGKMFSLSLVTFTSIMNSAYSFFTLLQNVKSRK
Chain of HarmOR29 (A0A7T3KAG0 1-395): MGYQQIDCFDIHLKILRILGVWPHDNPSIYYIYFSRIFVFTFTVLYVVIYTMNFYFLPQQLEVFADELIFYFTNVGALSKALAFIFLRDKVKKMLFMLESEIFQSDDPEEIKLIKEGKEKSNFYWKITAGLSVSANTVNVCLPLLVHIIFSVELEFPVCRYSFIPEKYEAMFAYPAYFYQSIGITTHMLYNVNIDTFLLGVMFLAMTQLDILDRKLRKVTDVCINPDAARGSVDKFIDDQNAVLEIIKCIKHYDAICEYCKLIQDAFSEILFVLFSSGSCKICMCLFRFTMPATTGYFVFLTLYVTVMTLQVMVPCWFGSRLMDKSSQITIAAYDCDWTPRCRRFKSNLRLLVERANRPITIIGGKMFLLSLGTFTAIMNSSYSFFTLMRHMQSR
Chain of HarmOR55 (A0A7T3N2G6 entry or part of it): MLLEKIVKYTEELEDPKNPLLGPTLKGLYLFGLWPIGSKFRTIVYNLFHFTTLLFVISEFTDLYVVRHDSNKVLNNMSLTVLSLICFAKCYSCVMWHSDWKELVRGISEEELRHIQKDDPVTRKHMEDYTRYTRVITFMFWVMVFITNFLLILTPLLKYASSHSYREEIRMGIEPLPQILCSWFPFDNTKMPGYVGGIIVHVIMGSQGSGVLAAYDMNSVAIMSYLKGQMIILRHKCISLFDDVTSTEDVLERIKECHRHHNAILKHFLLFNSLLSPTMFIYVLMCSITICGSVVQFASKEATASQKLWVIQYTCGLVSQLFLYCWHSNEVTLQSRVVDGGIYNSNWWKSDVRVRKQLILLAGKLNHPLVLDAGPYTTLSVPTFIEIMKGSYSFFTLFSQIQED

SMILES: C=C1CC[C@H]2O[C@]2(C)CC[C@@H]2[C@@H]1CC2(C)C [(-)-Caryophyllene oxide]
- pEC50 (HarmOR63): 4.28

SMILES: C=C1CC/C=C(\C)CC[C@@H]2[C@@H]1CC2(C)C [(-)-trans-Caryophyllene]
- pEC50 (HarmOR63): 4.05

SMILES: C=CC(C)(O)CC/C=C(\C)CCC=C(C)C (stereo not shown) [(E)-Nerolidol]
- pEC50 (HarmOR55): 4.06
- pEC50 (HarmOR40): 4.90
- pEC50 (HarmOR26): 7.54
- response of the HarmOR repertoire (HarmOR repertoire): still responded

SMILES: CC(=O)OCc1ccccc1 [Benzyl acetate]
- pEC50 (HarmOR7; HarmOR7, dose response in oocytes, unit M, read-out: EC50): 4.22

SMILES: C=CCc1ccc(O)c(OC)c1 [Eugenol]
- pEC50 (HarmOR35): 4.37
- pEC50 (HarmOR25; HarmOR25, dose response in oocytes, unit M): 4.09
- main ligand of HarmOR25 (HarmOR25; clade E): main ligand
- pEC50 (HarmOR29): 4.72
- pEC50 (HarmOR60; HarmOR60, dose response in oocytes, unit M): 5.76
- main ligand of HarmOR60 (HarmOR60; clade B): main ligand

SMILES: C=CCc1ccc(OC)c(OC)c1 [Methyl eugenol]
- pEC50 (HarmOR8): 3.97

SMILES: COC(=O)Cc1ccccc1 [Methyl phenylacetate]
- pEC50 (HarmOR7): 3.97
- pEC50 (HarmOR31): 4.53
